Measured values taken from patent publication US9284333B2, “Fused pyrroledicarboxamides and their use as pharmaceuticals” (SANOFI, priority 2012, dated 2016).

Tests used:
Human TASK-1 channels = Human TASK-1 channels (Homo sapiens (Human), UniProt O14649); experiment: Determination of the activity on the TASK-1 channel in Xenopus oocytes (two-microelectrode voltage clamp); assay type: cell-based; details: human TASK-1 expressed in Xenopus oocytes, room temperature; read-out: IC50 value for TASK-1 inhibition
How it was run: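 Xenopus oocytes were injected with human TASK-1 cRNA and recorded two days later by two-microelectrode voltage clamp, holding at −90 mV with 500 ms steps to 40 mV. Superfusion used ND96, pH 7.4, at room temperature, with rising compound concentrations; percentage inhibition of control current was fitted to a dose-response curve for IC50.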

[1] = tested on: atrium of the anesthetized pig; experiment: Investigation of the refractory period and the left-atrial vulnerability in the anesthetized pig; assay type: in vivo; details: Sus scrofa, iv
Protocol: Investigation of the Refractory Period and the Left-Atrial Vulnerability in the Pig
The compounds were tested for prolongation of the refractory period and antiarrhythmic activity on the atrium of the anesthetized pig as described in Knobloch K. et al., Naunyn-Schmiedeberg's Arch. Pharmacol. 2002, 366, 482-487. Here the anti-arrhythmic action relates to the inhibition of the occurrence of episodes of atrial arrhythmias which are induced by a prematurely placed extra-stimulus (S2) in the left atrium (=left-atrial vulnerability). The prolongation of the refractory period (refractoriness) is expressed as the increase in percent of the value of the refractory period 15 min after the end of administration of the test compound vs. the basal value before administration. Mean values of the prolongation of the refractory period are shown from three rates (150/min, 200/min and 250/min). The values for the inhibition of left atrial vulnerability (inhibition of episodes of arrhythmias) in percent refer to three measurements (three time points) before administration of the test compound vs. at least three measurements during the first hour after administration.
In Table 16, the action of compounds of the formula I from the examples above on the refractory period of the left atrium and their antiarrhythmic activity in the anesthetized pig after intravenous (i.v.) administration of the described dose is shown.

Chain of Human TASK-1 channels (O14649 whole entry, the tested form may be a part): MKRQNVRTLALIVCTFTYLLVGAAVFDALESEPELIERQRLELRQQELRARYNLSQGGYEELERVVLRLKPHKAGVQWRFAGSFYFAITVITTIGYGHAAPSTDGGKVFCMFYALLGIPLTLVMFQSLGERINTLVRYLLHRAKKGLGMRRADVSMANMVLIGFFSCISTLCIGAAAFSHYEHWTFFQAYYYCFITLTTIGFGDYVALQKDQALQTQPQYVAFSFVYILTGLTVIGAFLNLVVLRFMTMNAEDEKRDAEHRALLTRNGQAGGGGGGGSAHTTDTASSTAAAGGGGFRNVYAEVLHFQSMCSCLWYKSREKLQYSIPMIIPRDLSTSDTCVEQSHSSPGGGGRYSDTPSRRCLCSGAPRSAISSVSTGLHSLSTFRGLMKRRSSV

IC50 (Human TASK-1 channels) [nM] | SMILES | inhibition in vivo at 0.3 mg/kg ([1]; 0.3 mg/kg i.v. bolus injection) [%] | change in vivo at 0.3 mg/kg ([1]; 0.25 h, 0.3 mg/kg i.v. bolus injection, 15 min after administration vs basal, mean of three rates, read-out: % Prolongation of left atrial refractory period) [%] | inhibition in vivo at 0.1 mg/kg ([1]; 0.1 mg/kg i.v. infusion over 1 h) [%] | change in vivo at 0.1 mg/kg ([1]; 0.25 h, 0.1 mg/kg i.v. infusion over 1 h, read-out: % Prolongation of left atrial refractory period) [%]
290 | CC[C@@H](NC(=O)c1cc(C(=O)N[C@H](C)c2ccc(F)cc2)n2c1COCC2)c1ccc(C(F)(F)F)nc1 [16g, 3,4-Dihydro-1H-pyrrolo[2,1-c][1,4]oxazine-6,8-dicarboxylic acid 6-{[(R)-1-(4-fluoro-phenyl)-ethyl]-amide} 8-{[(R)-1-(6-trifluoromethyl-pyridin-3-yl)-propyl]-amide}] | 100 | 19 | – | –
240 | CC[C@H](NC(=O)c1cc(C(=O)N[C@H](C)c2ccc(F)cc2)n2c1COCC2)c1ncccn1 [16h, 3,4-Dihydro-1H-pyrrolo[2,1-c][1,4]oxazine-6,8-dicarboxylic acid 6-{[(R)-1-(4-fluoro-phenyl)-ethyl]-amide} 8-[((S)-1-pyrimidin-2-yl-propyl)amide]] | – | – | 97 | 42
210 | CC[C@@H](NC(=O)c1cc(C(=O)N2CCC[C@@H]2C(C)C)c2n1CCOC2)c1ccccc1 [16kl, 8-((R)-2-Isopropyl-pyrrolidine-1-carbonyl)-3,4-dihydro-1H-pyrrolo[2,1-c][1,4]oxazine-6-carboxylic acid ((R)-1-phenyl-propyl)-amide] | – | – | – | –
